38 molecules from patent US20240002388A1, “PYRIMIDINONE COMPOUNDS AND USES THEREOF” (HUTCHISON MEDIPHARMA LIMITED, priority 2020, published 2024) can be followed below.

Molecules are shown by their SMILES.

The term IC50 denotes the point on the concentration scale where inhibition reaches its midpoint.

For the assay, the system named is L929 cell line (mouse fibroblastoma cell line). Nature of the assay: L929 cell viability assay (mTNF-α + Z-VAD-FMK induced necroptosis). The assay is classed as cell-based. To be noted: Mus musculus, L929, 20 h, L929 cells, mTNF-α 0.1 μg/mL + Z-VAD-FMK 5 μM, CellTiter-Glo. The procedure:
L929 cell line (mouse fibroblastoma cell line): purchased from ATCC (American Type Culture Collection) Cell Bank, cultured in 5% CO2, 37° C. incubator, and MEM medium which contains L-Glutamine, with 10% FBS was used. • MEM medium: GIBCO, Cat #11095080; • Fetal bovine serum (FBS): GIBCO, Cat #10099-141C; • Dimethyl sulfoxide (DMSO): Sigma, Cat #D2650; • 0.25% Trypsin-EDTA: GIBCO, Cat #25200072; • Recombinant Mouse TNF-alpha Protein (mTNF-α): R&D system, Cat #410-MT-050; • Pan-Caspase inhibitor (Z-VAD-FMK): Selleckchem, Cat #S7023; • CellTiter-Glo 2.0 Cell Viability Assay kit: Promega, Cat #G9242; • Microwell plate reader: Envision, Perkin Elmer; • 96-well plate: Corning, Cat #3917.
The L929 cells at the logarithmic phase were taken out, and the supernatant was discarded. After trypsinization and cell shedding, 10% FBS-containing medium was added for neutralization, and the supernatant was discarded after centrifugation. The cells were re-suspended using 10% FBS-containing medium, adjusted to 7×10^4 cells/ml, added to 96-well microplate at 70 μL/well, i.e., 4.9×10^3 cells/well. Then the plate was incubated in a 5% CO2, 37° C. cell incubator overnight.
After incubating overnight, the 96-well plate was taken out, the medium was discarded, and the plate was washed with 1% FBS-containing MEM medium. Then 1% FBS-containing MEM medium was added at 70 μL/well, and the plate was cultured in a 5% CO2, 37° C. cell incubator. After incubating for 1 hour, the test compound was diluted to the corresponding concentrations using DMSO with 3-fold serial dilution, then the corresponding concentration of DMSO diluted solution was diluted into 1% FBS-containing MEM medium, and 10 μL/well of the diluted test compound with different concentrations (final concentrations of test compound were 10, 3.33, 1.11, 0.37, 0.12, 0.04, 0.014 and 0.005 μM, while final concentration of DMSO was 0.3%) or 10 μL/well control solution (3% DMSO) were added to the cell culture system respectively, with the total volume being 80 μL/well. Then 10 μL of Z-VAD-FMK solution diluted with 1% FBS-containing MEM medium (final concentration of 5 μM) or 10 μL of control solution (2.5% DMSO) was added to each well, with the total volume being 90 μL/well. The plate was incubated in a 5% CO2, 37° C. cell culture incubator for 1 hour.
After incubating for 1 hour, 10 μL of recombinant mouse TNF-α protein solution diluted with 1% FBS-containing MEM medium (final concentration of 0.1 μg/mL) or 10 μL control solution (1% FBS-containing MEM medium) was added to each well. The plate was incubated in a 5% CO2, 37° C. cell culture incubator for 20 hours.
The cell culture plate was taken out from the incubator, and left to stand at room temperature for 30 minutes. Meanwhile, CellTiter-Glo viability assay kit was put from freezer to room temperature, and 50 μL of CellTiter-Glo reagent was added to all wells, the plate was shaken for 1 minutes, protected from light at room temperature for 10 minutes then read the plate on Envision to get the luminescence signal.
The 96-well plate in the dark was taken out, and the chemiluminescence was determined using the Envision microwell plate reader as the signal value of each well.
The mean signal value of the wells of the mixed solution of recombinant mouse TNF-alpha protein (final concentration of 0.1 μg/mL) and Pan-Caspase inhibitor (final concentration of 5 μM) was used as the lower value, and the mean signal value of the wells without stimulation was used as the upper value. According to the signal value of each well, the inhibition rate of each concentration of every compound was calculated, and the IC50 value of compound was obtained by Model 205 in XL-Fit 5.3 software (ID Business Solutions Limited).
Inhibition rate %=[(Luminescence readout of treated compound−Luminescence readout of positive control)/(Luminescence readout of negative control−Luminescence readout of positive control)]×100%, wherein
(In general: In ATP-based viability assays light output follows the ATP content of the culture.)
Take `CC(C)n1ncc2cnc(C(=O)NC3(c4ccc(-c5cncn(C)c5=O)c(F)c4)CC3)nc21` [Compound 23, N-(1-(3-fluoro-4-(1-methyl-6-oxo-1,6-dihydropyrimidin-5-yl)phenyl)cyclopropyl)-1-isopropyl-1H-pyrazolo[3,4-d]pyrimidine-6-carboxamide]: the IC50 amounted to 2700 nM.

Regarding `CC(C)n1cncc(-c2ccc(C3(NC(=O)c4ncc5cnn([C@H](C)C6CC6)c5n4)CC3)cc2)c1=O` [Compound 89, (R)-1-(1-cyclopropylethyl)-N-(1-(4-(1-i-propyl-6-oxo-1,6-dihydropyrimidin-5-yl)phenyl)cyclopropyl)-1H-pyrazolo[3,4-d]pyrimidine-6-carboxamide], the IC50 is 38 nM.

`CC(C)n1ncc2cnc(C(=O)NC3(c4ccc(-c5cncn(CC6CC6)c5=O)cc4)CC3)nc21` [Compound 36]: the IC50 came to 84 nM.

On to `CC(C)n1cncc(-c2ccc(C3(NC(=O)c4ncc5cnn(C(C)C)c5n4)CC3)cc2Cl)c1=O` [Compound 33], for which the IC50 came out at 665 nM.

With `Cn1cncc(-c2ccc(C3(NC(=O)c4nnc(Cc5c(F)cccc5F)[nH]4)CC3)cc2)c1=O` [Compound 18], the IC50 is 1720 nM.

In the case of `CCn1cncc(-c2ccc(C3(NC(=O)c4ncc5cnn(C(C)C)c5n4)CC3)cc2)c1=O` [Compound 37], the IC50 amounted to 186 nM.

With `CC(C)n1ncc2cnc(C(=O)NC3(c4ccc(-c5cncn(C)c5=O)c(Cl)c4)CC3)nc21` [Compound 25], the IC50 is 7600 nM.

As to `CC(C)n1cncc(-c2ccc(C3(NC(=O)c4ncc5cnn(CC6CC6)c5n4)CC3)cc2)c1=O` [Compound 61], the IC50 is 48 nM.

On to `CC(C)n1cncc(-c2ccc(C3(NC(=O)c4ncc5cnn(C6COC6)c5n4)CC3)cc2)c1=O` [Compound 60], for which the IC50 amounted to 9080 nM.

Take `CC(C)n1ncc2cnc(C(=O)NC3(c4ccc(-c5cncn(C6COC6)c5=O)cc4)CC3)nc21` [Compound 41]: the IC50 was found to be 1970 nM.

`CC(C)n1ncc2cnc(C(=O)NC3(c4ccc(-c5cncn(C)c5=O)cn4)CC3)nc21` [Compound 2]: the IC50 was found to be 7450 nM.

With `Cn1cncc(-c2ccc(C3(NC(=O)c4cc(Cc5ccccc5)on4)CC3)cc2)c1=O` [Compound 5], the IC50 came out at 2500 nM.

Turning to `CC(C)n1ncc2cnc(C(=O)NC3(c4ccc(-c5cncn([C@H](C)C(F)(F)F)c5=O)cc4)CC3)nc21` [Compound 39], the IC50 was found to be 59 nM.

For the molecule `CC(C)n1ncc2cnc(C(=O)NC3(c4ccc(-c5cncn([C@@H]6C[C@@H]6F)c5=O)cc4)CC3)nc21` [Compound 69], the IC50 turned out to be 98 nM.

As for `Cn1cncc(-c2ccc(C3(NC(=O)c4nnc(Cc5ccccc5)o4)CC3)cc2)c1=O` [Compound 11], the IC50 is 9120 nM.

Take `Cn1cncc(-c2ccc(C3(NC(=O)c4nc5n(n4)[C@@H](c4ccccc4)CC5)CC3)cc2)c1=O` [Compound 54, (R)—N-(1-(4-(1-methyl-6-oxo-1,6-dihydropyrimidin-5-yl)phenyl)cyclopropyl)-5-phenyl-6,7-dihydro-5H-pyrrolo[1,2-b][1,2,4]triazole-2-carboxamide]: the IC50 was 578 nM.

`CC(C)n1cncc(-c2ccc(C3(NC(=O)c4nc5n(n4)[C@@H](c4ccccc4)CC5)CC3)cc2)c1=O` [Compound 15]: the IC50 amounted to 2360 nM.

On to `Cn1cncc(-c2ccc(C3(NC(=O)c4noc(Cc5ccccc5)n4)CC3)cc2)c1=O` [Compound 9], for which the IC50 came to 2810 nM.

Take `CC(C)n1ncc2cnc(C(=O)NC3(c4ccc(-c5cncn(C6CC(F)(F)C6)c5=O)cc4)CC3)nc21` [Compound 65]: the IC50 is 861 nM.

On to `CC(C)n1ncc2cnc(C(=O)NC3(c4ccc(-c5cncn(CC6CCC6)c5=O)cc4)CC3)nc21` [Compound 66], for which the IC50 amounted to 53 nM.

Turning to `Cn1cncc(-c2ccc(C3(NC(=O)c4nnc(Cc5ccccc5)[nH]4)CC3)cc2)c1=O` [Compound 3], the IC50 amounted to 4280 nM.

Turning to `CC(C)n1ncc2cnc(C(=O)NC3(c4ccc(-c5cncn(C6(C)CCC6)c5=O)cc4)CC3)nc21` [Compound 79], the IC50 is 10 nM.

With `CC(C)n1ncc2cnc(C(=O)NC3(c4ccc(-c5cncn(C)c5=O)cc4)CC3)cc21` [Compound 28, 1-isopropyl-N-(1-(4-(1-methyl-6-oxo-1,6-dihydropyrimidin-5-yl)phenyl)cyclopropyl)-1H-pyrazolo[4,3-c]pyridine-6-carboxamide], the IC50 amounted to 5700 nM.

Consider `C[C@H](n1cncc(-c2ccc(C3(NC(=O)c4ncc5cnn(CC6CC6)c5n4)CC3)cc2)c1=O)C(F)(F)F` [Compound 68], for which the IC50 is 32 nM.

Regarding `CC(C)n1cncc(-c2ccc(C3(NC(=O)c4ncc5cnn(-c6ccccn6)c5n4)CC3)cc2)c1=O` [Compound 63], the IC50 was found to be 9420 nM.

For `C[C@@H](n1cncc(-c2ccc(C3(NC(=O)c4ncc5cnn(CC6CC6)c5n4)CC3)c(F)c2)c1=O)C(F)(F)F` [Compound 76], the IC50 amounted to 32 nM.

For `CC(C)n1cncc(-c2ccc(C3(NC(=O)c4ncc5cnn(C(C)C)c5n4)CC3)cc2F)c1=O` [Compound 35], the IC50 stood at 154 nM.

Consider `CC(C)Cc1nc(C(=O)NC2(c3ccc(-c4cncn(C)c4=O)cc3)CC2)ncc1Cl` [Compound 6], for which the IC50 turned out to be 299 nM.

In the case of `CC[C@H](C)n1cncc(-c2ccc(C3(NC(=O)c4ncc5cnn(C(C)C)c5n4)CC3)cc2)c1=O` [Compound 43], the IC50 was found to be 16 nM.

For the molecule `CC(C)n1cncc(-c2ccc(C3(NC(=O)c4ncc5cnn(CC6CCC6)c5n4)CC3)cc2)c1=O` [Compound 62], the IC50 was 27 nM.

Consider `CC(C#N)n1cncc(-c2ccc(C3(NC(=O)c4ncc5cnn(C(C)C)c5n4)CC3)cc2)c1=O` (stereo in doubt) [Compound 82, (R)—N-(1-(4-(1-(1-cyanoethyl)-6-oxo-1,6-dihydropyrimidin-5-yl)phenyl)cyclopropyl)-1-i-propyl-1H-pyrazolo[3,4-d]pyrimidine-6-carboxamide], for which the IC50 was 359 nM.

In the case of `CC(C)n1ncc2cnc(C(=O)NC3(c4ccc(-c5cncn(CC6CC6)c5=O)cc4F)CC3)nc21` [Compound 74], the IC50 was 30 nM.

On to `CC(C)n1ncc2cnc(C(=O)NC3(c4ccc(-c5cncn([C@@H](C)C(F)(F)F)c5=O)cc4F)CC3)nc21` (stereo in doubt) [Compound 47], for which the IC50 amounted to 24 nM.

On to `CC(C)n1ncc2cnc(C(=O)NC3(c4ccc(-c5cncn(CC(F)(F)F)c5=O)cc4)CC3)nc21` [Compound 38], for which the half-maximal inhibitory concentration (IC50) was 152 nM.

Consider `C[C@@H](n1cncc(-c2ccc(C3(NC(=O)c4ncc5cnn(CC6CC6)c5n4)CC3)cc2)c1=O)C(F)(F)F` [Compound 70], for which the IC50 is 12 nM.

In the case of `CC(C)n1cncc(-c2ccc(C3(NC(=O)c4ncc5cnn(C(C)C)c5n4)CC3)cc2)c1=O` [Compound 29, 1-isopropyl-N-(1-(4-(1-isopropyl-6-oxo-1,6-dihydropyrimidin-5-yl)phenyl)cyclopropyl)-1H-pyrazolo[3,4-d]pyrimidine-6-carboxamide], the IC50 worked out at 34 nM.

For the molecule `CC(C)n1cncc(-c2ccc(C3(NC(=O)c4ncc5cnn(C(C)C6CC6)c5n4)CC3)cc2)c1=O` (racemic) [Compound 59, 1-(1-cyclopropylethyl)-N-(1-(4-(1-i-propyl-6-oxo-1,6-dihydropyrimidin-5-yl)phenyl)cyclopropyl)-1H-pyrazolo[3,4-d]pyrimidine-6-carboxamide], the IC50 was found to be 17 nM.

As to `CC(C)n1ncc2cnc(C(=O)NC3(c4ccc(-c5cncn(C6(C)CC6)c5=O)cc4)CC3)nc21` [Compound 78], the IC50 was found to be 44 nM.
